# Measurements: patent USRE37410E, “Controlled local delivery of chemotherapeutic agents for treating solid tumors” (priority 1999, dated 2001)
# Like-named read-outs stand apart in the source and are kept apart here.
# Legend:
# [1] = system: 9L; assay type: cell-based; settings: Rattus norvegicus, read-out: LD90 (the source's name)
# [2] = system: F98; assay type: cell-based; settings: Rattus norvegicus, continuous 6-8 days exposure, read-out: LD90 (the source's name)
# [3] = system: H80; assay type: cell-based; settings: Homo sapiens; continuous 6-8 days exposure; read-out: LD90 (the source's name)
# Method: (§1) Cell culture. Tumor sensitivity to paclitaxel was measured by the clonogenic assay described by Rosenblum, et al., Cancer 41:2305-2314 (1978) and Salcman, et al., Neurosurgery 29:526-531 (1991) with rat glioma (9L, F98), human glioma (H80, U87, U373), and human medulloblastoma (D324) cell lines. Cells were grown and propagated in minimum essential medium (MEM) supplemented with 10% fetal bovine serum, L-glutamine, penicillin, and streptomycin and incubated at 37° C. in an atmosphere containing 5% CO2. At the start of each assay, 600 tumor cells in 2 ml of medium were plated on Falcon 6-well tissue-culture plates (Becton-Dickenson, Lincoln Park, N.J.). After incubating for 24 h, the medium was removed from the places and replaced with 2 ml of medium containing paclitaxel and 0.1% dimethylsulfoxide (DMSO). The treatment solutions were prepared as described by Roytta et al., Prostate 11:95-106 (1987). The paclitaxel treatment solution was then either replaced with fresh paclitaxel-free media containing 0.1% DMSO after 1 or 24 h or was left on the places for the 6- to 8-day incubation period. […] The colonies on each plate were counted and the result was expressed as a percentage of the colonies formed on control plates not exposed to paclitaxel. […] Graphs were prepared and analyzed using Cricket Graph v. […]
# [4] = system: U87; assay type: cell-based; settings: Homo sapiens, U-87 MG; continuous 6-8 days exposure; read-out: LD90 (the source's name)
# Method: as §1
# [5] = system: 9L, F98, U373, H80, U87, D324 cell lines; test: In vitro efficacy of paclitaxel on several cell lines (clonogenic assay); assay type: cell-based, rat and human
# [6] = In vitro release of paclitaxel from PCPP-SA (20:80) polymer discs; assay type: physicochemical
# Method: Solid paclitaxel, obtained from Napro Biotherapeutics (Boulder, Colo.) or from the National Cancer Institute (Bethesda, Md.), was mixed with poly[bis(p-carboxyphenoxy)propane-sebacic acid] copolymer (PCPP-SA) (20:80) synthesized according to the method of Domb, A. J., and R. Langer (J. Polym. Sci. 25:3373-3386 (1987)), the teachings of which are incorporated herein by reference, to give a mixture containing 0, 20, 30, or 40% paclitaxel by weight. The paclitaxel-polymer mixture was dissolved in methylene chloride (Fluka, Switzerland) to give a 10% solution (w:v). The solvent was evaporated with a nitrogen stream to yield a dry powder. […]
# The efficiency of the delivery of paclitaxel incorporated into a biodegradable polymer into the surrounding medium was assessed in vitro as follows. […]
# Protocol. […] The releasing medium was replaced at specified times during the 45-day (1000 hour) incubation period, and the recovered solutions were analyzed by scintillation counting and high pressure liquid chromatography (HPLC). […] Radioactive analysis to quantify the amount of paclitaxel release was done by mixing 200 μl of the releasing buffer solution with 4 ml of a scintillation mixture composed of toluene and Lumax (Landgraat, The Netherlands) scintillation mixture in a 2:1 volume ratio. This solution was counted on a 1211 Rack β-liquid scintillation counter (LKB-Wallac OY, Finland). […]
# [7] = in vivo; cited from earlier work
compound,measurement,setting,value
CC(=O)O[C@H]1C(=O)[C@@]2(C)[C@H]([C@H](OC(=O)c3ccccc3)[C@]3(O)C[C@H](OC(=O)[C@H](O)[C@@H](NC(=O)c4ccccc4)c4ccccc4)C(C)=C1C3(C)C)[C@]1(OC(C)=O)CO[C@@H]1C[C@@H]2O [paclitaxel],IC90,"[1]; 1 h, 1 h exposure",890 nM
same,IC90,"[1]; 24 h, 24 h exposure",100 nM
same,IC90,[2],25 nM
same,IC90,[3],19 nM
same,IC90,[4],9.1 nM
same,factor of potency increase in vitro,[5]; exposure for more than 24 h,two to four
same,concentration at which log cell kill occurred,[5]; rat and human brain-tumor cell lines,nanomolecular concentrations
same,amount required for log cell kill in rat lines relative to human lines,"[5]; rat lines (9L, F98) vs human lines (U87, U373, H80), 6-8 days",four to ten
same,release profile,"[6]; each of the polymer loadings, phosphate buffer pH 7.4, 37° C","released biphasically from the polymer, with an initial burst phase followed by a slower constant release phase"
same,identity of released paclitaxel by HPLC,[6]; released into buffer,corresponded with intact paclitaxel
same,penetration of intact blood-brain barrier,[7],"penetrates the intact blood-brain barrier poorly, if at all"
